Experimental data taken from US8546389B2 (priority 2010, dated 2013).

What was measured:
[1] = system: genotype 1b (Con 1) subgenomic replicon cell line; test: HCV replicon assay, genotype 1b (Renilla luciferase); assay type: cell-based, HCV genotype 1b (Con 1); details: Hepatitis C virus; genotype 1b replicon, 72 hours, luciferase; read-out: genotype 1b EC50 (range class)
Procedure: A genotype 1b (Con 1) subgenomic replicon cell line based on Blight et al., Science 2000 290: 1972-1974, modified to express a Renilla luciferase reporter gene was used to assess antiviral activity of test compounds. Cell cultures were maintained in a sub-confluent state in DMEM with glutamine, 10% heat-inactivated foetal bovine serum (FBS) and G418 (Geneticin®).
For assay, cells were seeded at a density of 7000 cells/well into 96 well tissue culture trays in culture media lacking G418. Compounds were tested in a three fold dilution series, for example starting from 50 uM. After 72 hours incubation at 37° C. and 5% CO2, Renilla luciferase activity was quantified via the Promega Renilla Luciferase or Renilla-Glo™ Luciferase Assay Systems (Promega corporation. The same method was employed for replicon assays using subgenomic genotype 1a and 2a replicon cell lines with a seeding cell density of 5000 cells/well for the 2a cell lines.
The compound concentration that reduced luciferase activity by 50% (EC50) was calculated using non-linear regression.

1b (BK) NS5bΔ21 = 1b (BK) NS5bΔ21 (Hepatitis C virus genotype 1b (isolate BK) (HCV), UniProt P26663); test: HCV polymerase inhibition assay, genotype 1b; assay type: biochemical, HCV genotype 1b (BK); details: 1b (BK) NS5bΔ21, 33P-GTP incorporation; read-out: 1b polymerase IC50 (range class)
Sequence of 1b (BK) NS5bΔ21 (P26663 2420-2989): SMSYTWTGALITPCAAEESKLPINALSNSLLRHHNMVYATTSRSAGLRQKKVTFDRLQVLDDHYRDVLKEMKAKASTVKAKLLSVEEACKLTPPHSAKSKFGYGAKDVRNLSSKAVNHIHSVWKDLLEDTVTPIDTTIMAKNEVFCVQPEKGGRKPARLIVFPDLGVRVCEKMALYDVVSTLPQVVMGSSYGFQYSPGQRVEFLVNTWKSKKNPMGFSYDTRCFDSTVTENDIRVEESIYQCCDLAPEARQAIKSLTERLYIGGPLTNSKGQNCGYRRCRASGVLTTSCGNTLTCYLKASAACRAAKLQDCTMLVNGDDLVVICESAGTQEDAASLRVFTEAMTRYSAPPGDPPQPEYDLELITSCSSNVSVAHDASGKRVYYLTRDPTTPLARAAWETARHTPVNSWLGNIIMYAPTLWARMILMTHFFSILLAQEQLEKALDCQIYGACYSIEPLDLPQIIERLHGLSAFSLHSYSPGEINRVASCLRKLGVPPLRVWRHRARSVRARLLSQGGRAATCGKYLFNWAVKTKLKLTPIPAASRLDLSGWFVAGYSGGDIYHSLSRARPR
Procedure: HCV polymerase reactions were carried out using a modified method of Howe et al., Antimicrobial Agents and Chemotherapy 2004 48(12): 4813-4821. Reactions contained a final concentration of, 0.5% DMSO, 50 nM, 1b (BK) NS5bΔ21, 20 mM Tris-HCl pH 7.5, 5 mM MgCl2, 5 mM MnCl2, 3 mM DTT, 0.05% BSA, 0.2 U/μL RNasin, 10 μg/mL Poly(rC) template, GTP (at Km) and 0.05 μCi/μL ^33P-GTP in a total reaction volume of 50 μL. Compounds were tested in a three fold dilution series, for example starting from 50 μM. Reactions were initiated with the addition of GTP and terminated after 1 hour with 50 μL ice cold 0.2 M EDTA. Terminated reactions were transferred to DEAE 96-well filter plates, unincorporated nucleotides washed from the filters and 50 μL scintillation fluid added prior to reading on a scintillation counter. Similarly, a genotype 3a (VRL-69) NS5bΔ21 polymerase enzyme assay was conducted using essentially the same method.
The compound concentration that reduced ^33P-GTP incorporation by 50% (IC50) was calculated using non-linear regression.

Structure (SMILES) | EC50 [1] | IC50 (1b (BK) NS5bΔ21)
CNC(=O)c1c2cc(C3CC3)c(N(C3CCN(S(C)(=O)=O)C3)S(C)(=O)=O)cc2nn1-c1ccc(Br)cc1 (centres unmarked) [Compound 52, 2-(4-bromophenyl)-5-cyclopropyl-N-methyl-6-{(methylsulfonyl)[1-(methylsulfonyl)pyrrolidin-3-yl]amino}-2H-indazole-3-carboxamide] | < 0.99 µM | < 0.99 µM
CNC(=O)c1c2cc(C3CC3)c(N(CCCO)S(C)(=O)=O)cc2nn1-c1ccc(C2CC2)cc1 [Compound 53, 5-cyclopropyl-2-(4-cyclopropylphenyl)-6-[(3-hydroxypropyl)(methylsulfonyl)amino]-N-methyl-2H-indazole-3-carboxamide] | < 0.99 µM | 1 to 9.99 µM
CNC(=O)c1c2cc(C3CC3)c(N(CCCO)S(C)(=O)=O)cc2nn1-c1ccc(OC)cc1 [Compound 55, 5-cyclopropyl-6-[(3-hydroxypropyl)(methylsulfonyl)amino]-2-(4-methoxyphenyl)-N-methyl-2H-indazole-3-carboxamide] | 1 to 9.99 µM | 1 to 9.99 µM
CNC(=O)c1c2cc(C3CC3)c(N(CCCF)S(C)(=O)=O)cc2nn1-c1ccc(Cl)cc1 [Compound 57, 2-(4-chlorophenyl)-5-cyclopropyl-6-[3-fluoropropyl(methylsulfonyl)amino]-N-methyl-2H-indazole-3-carboxamide] | < 0.99 µM | < 0.99 µM
CNC(=O)c1c2cc(C3CC3)c(N(CCCNC(=O)CCC(=O)O)S(C)(=O)=O)cc2nn1-c1ccc(Nc2ccc(F)cc2)cc1 [Compound 58, 4-[(3-{[5-Cyclopropyl-2-{4-[(4-fluorophenyl)amino]phenyl}-3-(methylcarbamoyl)-2H-indazol-6-yl](methylsulfonyl)amino}propyl)amino]-4-oxobutanoic acid] | 10 to 50 µM | < 0.99 µM
CNC(=O)c1c2cc(C3CC3)c(N(CCCNC(C)=O)S(C)(=O)=O)cc2nn1-c1ccc(NCC(C)C)cc1 [Compound 60, 6-{[3-(acetylamino)propyl](methylsulfonyl)amino}-5-cyclopropyl-N-methyl-2-(4-[(2-methylpropyl)amino]phenyl)-2H-indazole-3-carboxamide] | 1 to 9.99 µM | 1 to 9.99 µM
CNC(=O)c1c2cc(C3CC3)c(N(CCCNC(=O)CCN)S(C)(=O)=O)cc2nn1-c1ccc(Br)cc1 [Compound 61, 6-{[3-(β-Alanylamino)propyl](methylsulfonyl)amino}-2-(4-bromophenyl)-5-cyclopropyl-N-methyl-2H-indazole-3-carboxamide] | 1 to 9.99 µM | < 0.99 µM
CNC(=O)c1c2cc(C3CC3)c(N(CCCNC(=O)[C@H]3CCC[C@H]3C(=O)O)S(C)(=O)=O)cc2nn1-c1ccc(Br)cc1 [Compound 63, (1R,2S)-2-[(3-{[2-(4-Bromophenyl)-5-cyclopropyl-3-(methylcarbamoyl)-2H-indazol-6-yl](methylsulfonyl)amino}propyl)carbamoyl]cyclopentanecarboxylic acid] | < 0.99 µM | < 0.99 µM
CNC(=O)c1c2cc(C3CC3)c(N(CCCNC(=O)C3COCCN3C)S(C)(=O)=O)cc2nn1-c1ccc(Br)cc1 (centres unmarked) [Compound 64, 2-(4-Bromophenyl)-5-cyclopropyl-N-methyl-6-{[3-({[4-methylmorpholin-3-yl]carbonyl}amino)propyl](methylsulfonyl)amino}-2H-indazole-3-carboxamide] | < 0.99 µM | < 0.99 µM
CNC(=O)c1c2cc(C3CC3)c(N(CCCN(C)C)S(C)(=O)=O)cc2nn1-c1ccc(Br)cc1 [Compound 65, 2-(4-Bromophenyl)-5-cyclopropyl-6-{[3-(dimethylamino)propyl] (methylsulfonyl)amino}-N-methyl-2H-indazole-3-carboxamide] | < 0.99 µM | < 0.99 µM
CNC(=O)c1c2cc(C3CC3)c(N(CCCNC(=O)CCC(=O)NC(C)C)S(C)(=O)=O)cc2nn1-c1ccc(Br)cc1 [Compound 67] | 1 to 9.99 µM | < 0.99 µM
CNC(=O)c1c2cc(C3CC3)c(N(CCCNC(=O)CCC(=O)O)S(C)(=O)=O)cc2nn1-c1ccc(Br)cc1 [Compound 68, 4-[(3-{[2-(4-bromophenyl)-5-cyclopropyl-3-(methylcarbamoyl)-2H-indazol-6-yl](methylsulfonyl)amino}propyl)amino]-4-oxobutanoic acid] | 10 to 50 µM | < 0.99 µM
CNC(=O)c1c2cc(C3CC3)c(N(CCCN3C(=O)CCC3=O)S(C)(=O)=O)cc2nn1-c1ccc(Br)cc1 [Compound 69, 2-(4-bromophenyl)-5-cyclopropyl-6-{[3-(2,5-dioxopyrrolidin-1-yl)propyl](methylsulfonyl)amino}-N-methyl-2H-indazole-3-carboxamide] | < 0.99 µM | < 0.99 µM
CNC(=O)c1c2cc(C3CC3)c(N(CCCN3CCNC3=O)S(C)(=O)=O)cc2nn1-c1ccc(Br)cc1 [Compound 70, 2-(4-Bromophenyl)-5-cyclopropyl-N-methyl-6-{(methylsulfonyl)[3-(2-oxoimidazolidin-1-yl)propyl]amino}-2H-indazole-3-carboxamide] | 1 to 9.99 µM | < 0.99 µM
C=Cc1cc2c(C(=O)NC)n(-c3ccc(F)cc3)nc2cc1N(CC)S(C)(=O)=O [Compound 71, 5-Ethenyl-6-[ethyl(methylsulfonyl)amino]-2-(4-fluorophenyl)-N-methyl-2H-indazole-3-carboxamide] | 1 to 9.99 µM | 1 to 9.99 µM
CCc1cc2c(C(=O)NC)n(-c3ccc(F)cc3)nc2cc1N(CC)S(C)(=O)=O [Compound 72, 5-ethyl-6-[ethyl(methylsulfonyl)amino]-2-(4-fluorophenyl)-N-methyl-2H-indazole-3-carboxamide] | 1 to 9.99 µM | 1 to 9.99 µM
CCN(c1cc2nn(-c3ccc(F)cc3)c(C(=O)NC)c2cc1C1=CCCC1)S(C)(=O)=O [Compound 73, 5-(Cyclopent-1-en-1-yl)-6-[ethyl(methylsulfonyl)amino]-2-(4-fluorophenyl)-N-methyl-2H-indazole-3-carboxamide] | 1 to 9.99 µM | 10 to 50 µM
CCN(c1cc2nn(-c3ccc(F)cc3)c(C(=O)NC)c2cc1C1CCCC1)S(C)(=O)=O [Compound 74, 5-cyclopentyl-6-[ethyl(methylsulfonyl)amino]-2-(4-fluorophenyl)-N-methyl-2H-indazole-3-carboxamide] | 1 to 9.99 µM | 10 to 50 µM
CCN(c1cc2nn(-c3ccc(F)cc3)c(C(=O)NC)c2cc1C#CCO)S(C)(=O)=O [Compound 75, 6-[Ethyl(methylsulfonyl)amino]-2-(4-fluorophenyl)-5-(3-hydroxyprop-1-yn-1-yl)-N-methyl-2H-indazole-3-carboxamide] | 10 to 50 µM | 1 to 9.99 µM
CCN(c1cc2nn(-c3ccc(F)cc3)c(C(=O)NC)c2cc1/C=C\CO)S(C)(=O)=O [Compound 76, 6-[ethyl(methylsulfonyl)amino]-2-(4-fluorophenyl)-5[(1Z)-3-hydroxyprop-1-en-1-yl]-N-methyl-2H-indazole-3-carboxamide] | 1 to 9.99 µM | 10 to 50 µM
C#Cc1cc2c(C(=O)NC)n(-c3ccc(F)cc3)nc2cc1N(CC)S(C)(=O)=O [Compound 77, 6-[Ethyl(methylsulfonyl)amino]-5-ethynyl-2-(4-fluorophenyl)-N-methyl-2H-indazole-3-carboxamide] | 1 to 9.99 µM | 10 to 50 µM
CCN(c1cc2nn(-c3ccc(F)cc3)c(C(=O)NC)c2cc1OC(F)F)S(C)(=O)=O [Compound 78, 5-(Difluoromethoxy)-6-[ethyl(methylsulfonyl)amino]-2-(4-fluorophenyl)-N-methyl-2H-indazole-3-carboxamide] | 1 to 9.99 µM | 10 to 50 µM
CNC(=O)c1c2cc(C3CC3)c(N(CCCO)S(C)(=O)=O)cc2nn1-c1ccc(COC(C)C)cc1 [Compound 79, 5-Cyclopropyl-6-[(3-hydroxypropyl)(methylsulfonyl)amino]-N-methyl-2-{4-[(propan-2-yloxy)methyl]phenyl}-2H-indazole-3-carboxamide] | 1 to 9.99 µM | 1 to 9.99 µM
CNC(=O)c1c2cc(C3CC3)c(-c3c(C)noc3C)cc2nn1-c1ccc(F)cc1 [Compound 83, 5-Cyclopropyl-6-(3,5-dimethyl-1,2-oxazol-4-yl)-2-(4-fluorophenyl)-N-methyl-2H-indazole-3-carboxamide] | 1 to 9.99 µM | 10 to 50 µM
CCOC(=O)CCCN(c1cc2nn(-c3ccc(Br)cc3)c(C(=O)NC)c2cc1C1CC1)S(C)(=O)=O [Compound 88, Ethyl 4-{[2-(4-bromophenyl)-5-cyclopropyl-3-(methylcarbamoyl)-2H-indazol-6-yl](methylsulfonyl)amino}butanoate] | < 0.99 µM | < 0.99 µM
